Results from patent US9409952B2, “Peptide-compound cyclization method” (Chugai Seiyaku Kabushiki Kaisha, priority 2011, dated 2016).
Starred links: 1 amine or outer side, 2 acyl side, 3 side chain; linkers in the order of their positions; H or OH if unused. Positions of bridges follow the written chain, without caps; N, C: chain ends. Non-standard residues stand in square brackets, D forms with d. Residues, ends and D or L forms follow the SMILES beside them. *: point of attachment. NMeF = CN[C@@H](Cc1ccccc1)C(=O)O; NMeGABA = CN(CCCC(=O)[*:2])[*:1]; NMeβAla = CN(CCC(=O)[*:2])[*:1]; NMeL = CN[C@@H](CC(C)C)C(=O)O; NMeV = CN[C@H](C(=O)O)C(C)C; NMeA = CN[C@@H](C)C(=O)O; Piperidide = C1CCN(*)CC1; dNMeA = CN[C@H](C)C(=O)O; Sar = CNCC(=O)O; tBu = CC(C)(C)*

Experiments:
[1] = PAMPA (parallel artificial membrane permeability assay); format: in vitro ADME; settings: PAMPA; membrane permeation rate (Pe); 50 mM MOPSO buffer pH 6.5 with 5.0% glycocholic acid, 37° C., 18 hours; read-out: iPAMPA Pe
Method in brief: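 Artificial membrane was 10% (w/v) egg lecithin plus 0.5% (w/v) cholesterol in dodecane on a PVDF filter. A 10 mM DMSO stock was added at 0.5% (v/v) to donor buffer (50 mM MOPSO, pH 6.5, 5.0% glycocholic acid). After 18 h at 37 °C, LC/MS or LC/UV gave donor and acceptor levels for Pe.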

[2] = Metabolic stability in human hepatic microsome; format: in vitro ADME; settings: microsomes, pH 7.4; human hepatic microsome, NADPH(+); read-out: CL NADPH(+)

| SMILES | Papp at 18 hours, 50 µM [1] [×10⁻⁶ cm/s] | microsomal CLint at 1 uM [2] [µL/min/mg] |
| --- | --- | --- |
| CC(C)C[C@H]1C(=O)N(C)[C@@H](C)C(=O)N[C@@H]([C@@H](C)O)C(=O)N(C)[C@@H](C)C(=O)N(C)[C@@H](C(C)C)C(=O)N[C@@H](COC(C)(C)C)C(=O)N[C@H](C(=O)N2CCCCC2)CC(=O)N(C)CCC(=O)N(C)[C@@H](Cc2ccccc2)C(=O)N[C@@H](C)C(=O)N(C)[C@@H](C)C(=O)N[C@@H](Cc2ccccc2)C(=O)N1C [DP-465] ([NMeβAla][NMeF]A[NMeA]F[NMeL][NMeA]T[NMeA][NMeV]S(tBu)D-Piperidide; lactam N-12) | 5.1 | 23 |
| CC(C)C[C@@H]1NC(=O)[C@H](CC(C)C)N(C)C(=O)[C@H](Cc2ccccc2)N(C)C(=O)[C@@H](C)N(C)C(=O)C[C@@H](C(=O)N2CCCCC2)NC(=O)[C@H](Cc2ccccc2)N(C)C(=O)[C@H](C)N(C)C(=O)[C@H](C)NC(=O)CN(C)C(=O)[C@H](C)N(C)C(=O)[C@H]([C@@H](C)O)NC(=O)[C@H](C(C)C)N(C)C1=O [DP-466] ([dNMeA][NMeF][NMeL]L[NMeV]T[NMeA][Sar]A[NMeA][NMeF]D-Piperidide; lactam N-12) | 15 | 17 |
| CC(C)C[C@@H]1NC(=O)[C@H](C(C)C)N(C)C(=O)[C@H](C)N(C)C(=O)[C@H](Cc2ccccc2)N(C)C(=O)[C@H](Cc2ccccc2)NC(=O)[C@@H](C)N(C)C(=O)C[C@@H](C(=O)N2CCCCC2)NC(=O)[C@H]([C@@H](C)O)NC(=O)[C@H](C)N(C)C(=O)[C@H](C)N(C)C(=O)[C@H](C)NC(=O)CN(C)C1=O [DP-467] ([dNMeA]F[NMeF][NMeA][NMeV]L[Sar]A[NMeA][NMeA]TD-Piperidide; lactam N-12) | 1.5 | 12 |
| CC[C@H](C)[C@@H]1NC(=O)CCCN(C)C(=O)C[C@@H](C(=O)N2CCCCC2)NC(=O)[C@H](Cc2ccccc2)N(C)C(=O)[C@H](CC(C)C)N(C)C(=O)CN(C)C(=O)[C@H]([C@@H](C)O)NC(=O)[C@H](C)N(C)C(=O)[C@H](C(C)C)N(C)C(=O)[C@H](C)NC(=O)[C@H](CC(C)C)N(C)C(=O)[C@H](Cc2ccccc2)N(C)C1=O [DP-468] ([NMeGABA]I[NMeF][NMeL]A[NMeV][NMeA]T[Sar][NMeL][NMeF]D-Piperidide; lactam N-12) | 27 | 53 |
| CC(C)C[C@@H]1NC(=O)[C@H](Cc2ccccc2)N(C)C(=O)[C@H](C)N(C)C(=O)C[C@@H](C(=O)N2CCCCC2)NC(=O)[C@H](Cc2ccccc2)N(C)C(=O)[C@H](C)N(C)C(=O)[C@H]([C@@H](C)O)NC(=O)CN(C)C(=O)[C@H](C)N(C)C(=O)[C@H](C)NC(=O)[C@H](C(C)C)N(C)C(=O)[C@H](CC(C)C)N(C)C1=O [DP-469] ([NMeA][NMeF]L[NMeL][NMeV]A[NMeA][Sar]T[NMeA][NMeF]D-Piperidide; lactam N-12) | 14 | 23 |
| CC(C)C[C@@H]1NC(=O)[C@H](Cc2ccccc2)N(C)C(=O)[C@H](C)NC(=O)[C@H](C)N(C)C(=O)C[C@@H](C(=O)N2CCCCC2)NC(=O)[C@H]([C@@H](C)O)NC(=O)[C@H](C)N(C)C(=O)[C@H](C)N(C)C(=O)[C@H](Cc2ccccc2)NC(=O)CN(C)C(=O)[C@H](C(C)C)N(C)C(=O)[C@H](C)N(C)C1=O [DP-470] ([NMeA]A[NMeF]L[NMeA][NMeV][Sar]F[NMeA][NMeA]TD-Piperidide; lactam N-12) | 1.2 | 11 |
| CC(C)C[C@H]1C(=O)N[C@@H]([C@@H](C)O)C(=O)N(C)CC(=O)N(C)[C@@H](Cc2ccccc2)C(=O)N(C)[C@@H](CC(C)C)C(=O)N(C)[C@@H](Cc2ccccc2)C(=O)N(C)[C@@H](CC(C)C)C(=O)N[C@@H](C)C(=O)N[C@H](C(=O)N2CCCCC2)CC(=O)N(C)CCC(=O)N(C)[C@@H](C)C(=O)N1C [DP-471] ([NMeβAla][NMeA][NMeL]T[Sar][NMeF][NMeL][NMeF][NMeL]AD-Piperidide; lactam N-11) | 21 | 30 |
| CC(C)C[C@@H]1NC(=O)[C@H](C(C)C)NC(=O)[C@H](Cc2ccccc2)NC(=O)CCN(C)C(=O)C[C@@H](C(=O)N2CCCCC2)NC(=O)[C@H](CC(C)C)N(C)C(=O)[C@H](CC(C)C)NC(=O)[C@H](C(C)C)N(C)C(=O)[C@H](CC(C)C)NC(=O)[C@H]([C@@H](C)O)NC(=O)CN(C)C1=O [DP-472] ([NMeβAla]FVL[Sar]TL[NMeV]L[NMeL]D-Piperidide; lactam N-11) | 24 | 52 |
| CC(C)C[C@H]1C(=O)N(C)[C@@H](C(C)C)C(=O)N(C)[C@@H](C)C(=O)N[C@H](C(=O)N2CCCCC2)CC(=O)N(C)CCC(=O)N[C@@H]([C@@H](C)O)C(=O)N[C@@H](C)C(=O)N(C)[C@@H](C)C(=O)N(C)[C@@H](Cc2ccccc2)C(=O)N(C)[C@@H](CC(C)C)C(=O)N[C@@H](Cc2ccccc2)C(=O)N1C [DP-473] ([NMeβAla]TA[NMeA][NMeF][NMeL]F[NMeL][NMeV][NMeA]D-Piperidide; lactam N-11) | 14 | 82 |
| CC(C)C[C@H]1C(=O)N[C@@H](C)C(=O)N(C)[C@@H](Cc2ccccc2)C(=O)N(C)[C@@H](C(C)C)C(=O)N[C@@H](Cc2ccccc2)C(=O)N(C)[C@@H](C)C(=O)N(C)[C@@H](C)C(=O)N[C@H](C(=O)N2CCCCC2)CC(=O)N(C)[C@H](C)C(=O)N[C@@H]([C@@H](C)O)C(=O)N(C)[C@@H](C)C(=O)N1C [DP-474] ([dNMeA]T[NMeA][NMeL]A[NMeF][NMeV]F[NMeA][NMeA]D-Piperidide; lactam N-11) | 13 | 129 |
| CC[C@H](C)[C@@H]1NC(=O)[C@H](CC(C)C)NC(=O)[C@@H](C)N(C)C(=O)C[C@@H](C(=O)N2CCCCC2)NC(=O)[C@H](C(C)C)N(C)C(=O)[C@H](CC(C)C)NC(=O)[C@H](Cc2ccccc2)NC(=O)[C@H]([C@@H](C)O)NC(=O)[C@H](CC(C)C)NC(=O)CN(C)C(=O)[C@H](C)NC1=O [DP-475] ([dNMeA]LIA[Sar]LTFL[NMeV]D-Piperidide; lactam N-11) | 16 | 35 |
| CC(C)C[C@H]1C(=O)N(C)[C@@H](C)C(=O)N[C@@H]([C@@H](C)O)C(=O)N(C)[C@@H](C)C(=O)N(C)[C@@H](CC(C)C)C(=O)N(C)[C@@H](Cc2ccccc2)C(=O)N[C@H](C(=O)N2CCCCC2)CC(=O)N(C)[C@H](C)C(=O)N(C)[C@@H](C)C(=O)N[C@@H](C)C(=O)N(C)[C@@H](C)C(=O)N1C [DP-476] ([dNMeA][NMeA]A[NMeA][NMeL][NMeA]T[NMeA][NMeL][NMeF]D-Piperidide; lactam N-11) | 2.8 | 10 |
| CC[C@H](C)[C@@H]1NC(=O)[C@H](Cc2ccccc2)N(C)C(=O)CN(C)C(=O)[C@H]([C@@H](C)O)NC(=O)[C@H](CC(C)C)NC(=O)[C@H](CC(C)C)N(C)C(=O)[C@H](C)N(C)C(=O)CCCN(C)C(=O)C[C@@H](C(=O)N2CCCCC2)NC(=O)[C@H](Cc2ccccc2)N(C)C(=O)[C@H](C(C)C)N(C)C1=O [DP-477] ([NMeGABA][NMeA][NMeL]LT[Sar][NMeF]I[NMeV][NMeF]D-Piperidide; lactam N-11) | 29 | 30 |
| CC[C@H](C)[C@@H]1NC(=O)[C@H](CC(C)C)NC(=O)[C@H](C(C)C)NC(=O)[C@H](CC(C)C)N(C)C(=O)[C@H](CC(C)C)NC(=O)[C@H](Cc2ccccc2)NC(=O)[C@H]([C@@H](C)O)NC(=O)[C@H](C)N(C)C(=O)[C@H](CC(C)C)NC(=O)[C@H](C)N(C)C(=O)C[C@@H](C(=O)N2CCCCC2)NC1=O [DP-478] ([NMeA]L[NMeA]TFL[NMeL]VLID-Piperidide; lactam N-11) | 18 | 50 |
| CC(C)C[C@@H]1NC(=O)[C@H](CC(C)C)N(C)C(=O)[C@H](C(C)C)N(C)C(=O)[C@H](C)NC(=O)CN(C)C(=O)[C@H](Cc2ccccc2)NC(=O)[C@H]([C@@H](C)O)NC(=O)[C@H](CC(C)C)N(C)C(=O)[C@H](C)N(C)C(=O)C[C@@H](C(=O)N2CCCCC2)NC(=O)[C@H](CC(C)C)N(C)C1=O [DP-479] ([NMeA][NMeL]TF[Sar]A[NMeV][NMeL]L[NMeL]D-Piperidide; lactam N-11) | 46 | 183 |
| CC(C)C[C@H]1C(=O)N(C)[C@@H](C)C(=O)N[C@H](C(=O)N2CCCCC2)CC(=O)N(C)[C@@H](C)C(=O)N(C)[C@@H](C)C(=O)N[C@@H](C)C(=O)N(C)[C@@H](C)C(=O)N(C)[C@@H](CC(C)C)C(=O)N(C)[C@@H](Cc2ccccc2)C(=O)N[C@@H]([C@@H](C)O)C(=O)N(C)[C@@H](C)C(=O)N1C [DP-480] ([NMeA][NMeA]A[NMeA][NMeL][NMeF]T[NMeA][NMeL][NMeA]D-Piperidide; lactam N-11) | 6.6 | 15 |
| CC[C@H](C)[C@@H]1NC(=O)[C@H](C)N(C)C(=O)C[C@@H](C(=O)N2CCCCC2)NC(=O)[C@H](Cc2ccccc2)NC(=O)[C@H](CC(C)C)N(C)C(=O)[C@H](C(C)C)N(C)C(=O)[C@H](C)N(C)C(=O)[C@H]([C@@H](C)O)NC(=O)[C@H](Cc2ccccc2)N(C)C(=O)[C@H](C)N(C)C(=O)[C@H](CC(C)C)N(C)C1=O [DP-481] ([NMeA]I[NMeL][NMeA][NMeF]T[NMeA][NMeV][NMeL]FD-Piperidide; lactam N-11) | 31 | 82 |
| CC(C)C[C@H]1C(=O)N(C)[C@@H](C)C(=O)N(C)[C@@H](Cc2ccccc2)C(=O)N[C@@H]([C@@H](C)O)C(=O)N(C)CC(=O)N(C)[C@@H](Cc2ccccc2)C(=O)N(C)[C@@H](CC(C)C)C(=O)N[C@@H](C)C(=O)N[C@H](C(=O)N2CCCCC2)CC(=O)N(C)[C@@H](C)C(=O)N(C)[C@@H](C)C(=O)N1C [DP-482] ([NMeA][NMeA][NMeL][NMeA][NMeF]T[Sar][NMeF][NMeL]AD-Piperidide; lactam N-11) | 3.7 | 11 |
